Each structure is given as a SMILES string. Entries after “also recorded” stand apart in the source; their conditions may differ. Where two headings read alike, the source gives them in different places.

In data set [1] the target is tyrosinase. As to conditions: previously reported, cited from earlier work.
Data set [2] addresses tyrosinase (EC 1.14.18.1) (Agaricus bisporus, UniProt C7FF04). The experiment in a line: Tyrosinase inhibitory assay (L-Dopa oxidation). As to conditions: for IC50: tyrosinase, L-Dopa substrate, mean of three independent experiments. Format: biochemical.
Data set [3] relates to tyrosinase. The experiment in a line: UV/VIS spectra of tyrosinase with L-Dopa and inhibitor. The following applies: 475 nm, L-Dopa + tyrosinase, various concentrations of inhibitor. It counts as biochemical. How it is done:
UV spectra of compound 6a, tyrosinase and L-Dopa were analyzed separately. […] However, when L-Dopa was added to tyrosinase without an inhibitor, the highest absorbance was observed, confirming the generation of dopachrome.

The test system of data set [4] is tyrosinase. Nature of the data set: Enzyme kinetic studies (Lineweaver-Burk, L-Dopa substrate). It counts as biochemical. An excerpt:
The Lineweaver–Burk reciprocal plot was provided by plotting 1/V against 1/[S] at variable concentrations of the L-Dopa.

Data set [5] relates to mTYR. Also noted: method as in PMID 29427586. As to conditions: previously reported; cited from earlier work.
In data set [6] the test system is hTYR. Also noted: method as in PMID 29427586. The following applies: previously reported; cited from earlier work.

tyrosinase (EC 1.14.18.1), sequence (C7FF04 1-392): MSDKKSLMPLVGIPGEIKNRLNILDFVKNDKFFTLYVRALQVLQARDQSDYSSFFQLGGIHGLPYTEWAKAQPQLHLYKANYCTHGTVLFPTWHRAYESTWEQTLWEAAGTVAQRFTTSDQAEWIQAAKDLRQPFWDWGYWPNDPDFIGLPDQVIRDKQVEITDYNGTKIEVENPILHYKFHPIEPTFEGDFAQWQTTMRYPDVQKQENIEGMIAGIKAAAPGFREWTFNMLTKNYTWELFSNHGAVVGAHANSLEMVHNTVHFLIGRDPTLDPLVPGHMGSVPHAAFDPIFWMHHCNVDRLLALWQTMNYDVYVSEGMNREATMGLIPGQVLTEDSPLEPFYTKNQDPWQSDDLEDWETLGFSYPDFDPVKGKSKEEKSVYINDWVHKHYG

By IC50 is commonly meant the point on the concentration scale where inhibition reaches its midpoint. In the case of `CCCCC(=O)NC(=S)Nc1ccc(OC)cc1` [B], the figures for the concentration for half-maximal inhibition (IC50) in data set [1] and in data set [1] (listed as compound B) were 1.56 µM and 5.4 µM, respectively.
For `Cn1cc[nH]c1=S` [C, methimazole], in data set [1], the IC50 is 114 µM.
As usually defined, the Km is the concentration of substrate that gives half-maximal velocity. As a reminder, the Vmax is the rate approached at saturating substrate. In general, melting point refers to the temperature, or range, at which the solid turns liquid. Consider `CCOC(=O)C1=C(C)N=C2SC=C(C)N2C1c1ccccc1` (centres unmarked) [Compound 6a, Ethyl 3,7-dimethyl-5-phenyl-5H-thiazolo[3,2-a]pyrimidine-6-carboxylate], for which the melting point is 110 to 111 °C. The compound also came in with an IC50 in data set [2] of 28.5 µM. Further, in data set [3], the “absorbance intensity (dopachrome formation)” value is given as “decreased dose-dependently”. Further, the type of inhibition result in data set [4] (Lineweaver-Burk plot, L-Dopa substrate) is given as “noncompetitive inhibitor; also recorded: noncompetitive mode of inhibition”. For the same compound, in data set [4] (inhibitor concentration 5 µM), the Km turned out to be 690 µM and the Vmax came to 22.22 mM/min. Further, in data set [4] (inhibitor concentration 10 µM), the Michaelis constant (Km) was determined as 680 µM and the Vmax was found to be 12.66 mM/min. Also, in data set [4] (inhibitor concentration 25 µM), the Km was found to be 650 µM and the maximal velocity (Vmax) amounted to 10.35 mM/min. Moreover, in data set [4] (inhibitor concentration 50 µM), the Michaelis constant (Km) turned out to be 690 µM and the Vmax was 8.40 mM/min. Besides, in data set [4] (inhibitor concentration 100 µM), the Km stood at 660 µM and the Vmax was 5.15 mM/min.
`CCOC(=O)C1=C(C)N=C2SC=C(C)N2C1c1ccccc1F` (centres unmarked) [Compound 6b, Ethyl 5-(2-fluorophenyl)-3,7-dimethyl-5H-thiazolo[3,2-a]pyrimidine-6-carboxylate]: the melting point lay in the range of 111 to 112 °C. In data set [2], this compound yielded an IC50 of 40.8 µM.
Consider `CCOC(=O)C1=C(C)N=C2SC=C(C)N2C1c1cccc(F)c1` (centres unmarked) [Compound 6c, Ethyl 5-(3-fluorophenyl)-3,7-dimethyl-5H-thiazolo[3,2-a]pyrimidine-6-carboxylate], for which the melting point lay within 113 to 114 °C. For the same compound, the IC50 in data set [2] was 56 µM.
In the same order, the values of `CCOC(=O)C1=C(C)N=C2SC=C(C)N2C1c1ccccc1Cl` (centres unmarked) [Compound 6d, Ethyl 5-(2-chlorophenyl)-3,7-dimethyl-5H-thiazolo[3,2-a]pyrimidine-6-carboxylate] are 114 to 115 °C and 34.2 µM.
`CCOC(=O)C1=C(C)N=C2SC=C(C)N2C1c1ccc(Cl)cc1` (centres unmarked) [Compound 6e, Ethyl 5-(4-chlorophenyl)-3,7-dimethyl-5H-thiazolo[3,2-a]pyrimidine-6-carboxylate] showed a melting point of 113 to 114 °C. Further, in data set [2], the half-maximal inhibitory concentration (IC50) was determined as 37.7 µM.
As to `CCOC(=O)C1=C(C)N=C2SC=C(C)N2C1c1cccc(Br)c1` (centres unmarked) [Compound 6f, Ethyl 5-(3-bromophenyl)-3,7-dimethyl-5H-thiazolo[3,2-a]pyrimidine-6-carboxylate], the melting point fell in the range of 112 to 113 °C. For the same compound, in data set [2], the IC50 amounted to 85.3 µM.
In the case of `CCOC(=O)C1=C(C)N=C2SC=C(C)N2C1c1cccc([N+](=O)[O-])c1` (centres unmarked) [Compound 6g, Ethyl 3,7-dimethyl-5-(3-nitrophenyl)-5H-thiazolo[3,2-a]pyrimidine-6-carboxylate], the melting point was in the range of 151 to 152 °C. In addition, the half-maximal inhibitory concentration (IC50) in data set [2] amounted to 45.2 µM.
Compound `CCOC(=O)C1=C(C)N=C2SC=C(C)N2C1c1ccc(C)cc1` (centres unmarked) [Compound 6h, Ethyl 3,7-dimethyl-5-(p-tolyl)-5H-thiazolo[3,2-a]pyrimidine-6-carboxylate] gave a melting point of 114 to 115 °C. Further, the “tyrosinase inhibitory activity (in words)” value in data set [2] (SAR discussion) is “complete loss of activity”. In data set [2], this compound yielded a 50% inhibitory concentration (IC50) above 250 µM.
For the compound `CCOC(=O)C1=C(C)N=C2SC=C(C)N2C1c1ccc(OC)cc1` (centres unmarked) [Compound 6i, Ethyl 5-(4-methoxyphenyl)-3,7-dimethyl-5H-thiazolo[3,2-a]pyrimidine-6-carboxylate], the melting point is 111 to 112 °C. The compound also had an IC50 in data set [2] of 35.7 µM.
The compound `CCOC(=O)C1=C(C)N=C2SC=C(C)N2C1c1ccc(O)c(OC)c1` (centres unmarked) [Compound 6j, Ethyl 5-(4-hydroxy-3-methoxyphenyl)-3,7-dimethyl-5H-thiazolo[3,2-a]pyrimidine-6-carboxylate] gave a melting point of 121 to 122 °C. Further, the midpoint of inhibition in data set [2], the IC50, lay at 40.8 µM.
Turning to `Nc1nc(-c2ccc(O)cc2O)cs1` [Compound D], the IC50 in data set [1] is 51 µM.
On to `CC(C)C(=O)Nc1nc(-c2ccc(O)cc2O)cs1` [Compound E], for which the values for the 50% inhibitory concentration (IC50) in data set [5] and in data set [6] were 108 µM and 1.1 µM, respectively.
Regarding `CCOC(=O)C1=C(N)Oc2c(ccc3ccccc23)C1c1ccc(N(C)C)cc1` (centres unmarked) [F], the 50% inhibitory concentration (IC50) in data set [1] is 34.1 µM.
Take `NC(=S)N/N=C/c1cc(COC(=O)c2ccccc2)cs1` [G]: the IC50 in data set [1] is 0.068 µM.

These data come from PMC10658973, “Thiazolopyrimidine derivatives as novel class of small molecule tyrosinase inhibitor” (BMC Chemistry, 2023).
